Experimental data as given in US12390451B2, “Small molecule inhibitor of the JAK family of kinases” (Janssen Pharmaceutica NV, priority 2021, dated 2025).
Read-outs that look alike come from different tables or passages of the source.

Tests used:
JAK1/JAK3 = molecular target: T1, JAK1/JAK3 (Homo sapiens, UniProt P23458+P52333); test: IL-21-induced pSTAT-3 in human whole blood; format: cell-based; details: mean
T1 construct: endogenous in cells; host or cells: human whole blood
Description: Compound of Formula I presents low levels of systemic exposure after oral administration. To understand the relationship between systemic exposure and target engagement in human studies, the inhibition of cytokine-induced pSTAT-3 in human whole blood was measured with such compound. In human whole blood, compound of Formula I in a concentration-dependent manner inhibited the JAK1, JAK2, JAK3, and Tyk2 homo- and heterodimers downstream of IFNα (JAK1/Tyk2), thrombopoietin (TPO) (JAK2/JAK2), and IL-21 (JAK1/JAK3) signaling.

[1] = Serum and colonic concentrations in IL-12/IL-18 studies S-1 and S-2; format: in vivo, C57BL/6 mice; details: mice, mean±SEM; for concentration at 4 h / concentration at 30 min: C57BL/6, mouse, po; for concentration at 30 min: read-out: Serum 30 min post dosing
Description: C57BL/6 mice (6 to 8 weeks old) were randomized by weight and assigned to various treatment groups for each of two studies. Mice were challenged intraperitoneally with a combination of IL-12 (250 ng) and IL-18 (1 μg). To examine the effect of compound of Formula I on IL-12/IL-18-induced pSTAT-3 response, groups of mice were orally dosed with compound of Formula I 1 hour prior to IL-12/IL-18 challenge. Three hours after IL-12/IL-18 challenge, mice were euthanized with CO2 asphyxiation, blood was collected via cardiocentesis for PK analysis, and colon tissues were collected for measuring pSTAT-3 response and drug levels. Mice dosed orally with 20% 2-hydroxypropyl-β-cyclodextrin (HP-β-CD) were used as vehicle controls. Two independent studies (S-1 and S-2) were conducted to examine the effect of compound of Formula I on IL-12/IL-18-induced colonic pSTAT-3 response in mice. […] Serum levels were measured at 30 minutes and 4 hours (terminal) after dosing. […] Colon drug levels were measured 4 hours after dosing. […] Colonic exposure of compound of Formula I increased in a dose-dependent fashion. At 25 mg/kg dose, colonic exposure of compound of Formula I was 30814.5±5552.5 ng/g and 18256.5±4118.8 ng/g tissue. […] Oral dosing of compound of Formula I in mice resulted, as shown in other studies, in minimum systemic exposure and lack of consistent dose-dependent pharmacodynamic responses in the blood.
Data are presented as mean±SEM; N=3-7/group. BLOQ, below limit of quantification; min, minutes; h, hour(s).
Data are presented as mean±SEM; N=3 to 7/group. BLOQ, below limit of quantification; min, minutes; h, hour(s).

[2] = Serum and colon concentrations in explant studies SS-1 and SS-2; format: in vivo, C57BL/6 mice; details: for concentration at 4 h: C57BL/6, mouse, po
Description: C57BL/6 mice (6 to 8 weeks old) were randomized by weight and assigned to various treatment groups for each study. Mice were dosed orally with indicated doses of compound of Formula I. At the termination of the study, blood was collected via cardiocentesis, serum and washed proximal colon was prepared for PK analysis.
The high colonic and low systemic exposure observed for compound of Formula I implicate the role for colonic drug levels as the key driver of the observed pharmacology.
Data are presented as mean±SEM; N=5/group. BLOQ, below limit of quantification.

T1 sequence (P23458 whole entry): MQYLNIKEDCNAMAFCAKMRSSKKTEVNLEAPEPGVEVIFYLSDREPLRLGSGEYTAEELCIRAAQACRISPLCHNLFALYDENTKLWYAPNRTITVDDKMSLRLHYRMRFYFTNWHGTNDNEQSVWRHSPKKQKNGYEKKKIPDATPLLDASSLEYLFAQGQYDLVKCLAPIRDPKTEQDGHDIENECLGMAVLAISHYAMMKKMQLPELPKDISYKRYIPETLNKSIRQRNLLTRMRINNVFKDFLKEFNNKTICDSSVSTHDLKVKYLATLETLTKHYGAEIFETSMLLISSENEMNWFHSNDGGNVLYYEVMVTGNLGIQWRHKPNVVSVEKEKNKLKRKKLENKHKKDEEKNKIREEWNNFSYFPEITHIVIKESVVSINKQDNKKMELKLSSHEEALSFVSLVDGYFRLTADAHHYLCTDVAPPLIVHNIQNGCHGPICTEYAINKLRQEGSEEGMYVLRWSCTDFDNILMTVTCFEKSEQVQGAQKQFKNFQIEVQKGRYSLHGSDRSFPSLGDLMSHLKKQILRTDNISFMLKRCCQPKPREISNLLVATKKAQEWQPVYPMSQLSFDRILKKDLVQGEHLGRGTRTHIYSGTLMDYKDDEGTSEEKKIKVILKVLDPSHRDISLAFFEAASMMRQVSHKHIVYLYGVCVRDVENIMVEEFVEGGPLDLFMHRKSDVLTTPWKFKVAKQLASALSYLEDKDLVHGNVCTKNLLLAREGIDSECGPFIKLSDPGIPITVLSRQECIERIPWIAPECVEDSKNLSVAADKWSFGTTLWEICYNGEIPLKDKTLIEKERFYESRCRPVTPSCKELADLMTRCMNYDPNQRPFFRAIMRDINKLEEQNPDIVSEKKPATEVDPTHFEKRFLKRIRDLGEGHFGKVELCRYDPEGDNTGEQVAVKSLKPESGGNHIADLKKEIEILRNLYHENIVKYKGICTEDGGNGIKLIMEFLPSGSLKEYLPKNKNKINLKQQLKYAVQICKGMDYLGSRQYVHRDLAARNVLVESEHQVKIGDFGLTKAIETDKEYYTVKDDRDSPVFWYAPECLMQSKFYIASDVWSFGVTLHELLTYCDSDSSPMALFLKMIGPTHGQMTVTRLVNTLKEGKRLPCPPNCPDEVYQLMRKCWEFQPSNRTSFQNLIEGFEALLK
T1 sequence (P52333 whole entry): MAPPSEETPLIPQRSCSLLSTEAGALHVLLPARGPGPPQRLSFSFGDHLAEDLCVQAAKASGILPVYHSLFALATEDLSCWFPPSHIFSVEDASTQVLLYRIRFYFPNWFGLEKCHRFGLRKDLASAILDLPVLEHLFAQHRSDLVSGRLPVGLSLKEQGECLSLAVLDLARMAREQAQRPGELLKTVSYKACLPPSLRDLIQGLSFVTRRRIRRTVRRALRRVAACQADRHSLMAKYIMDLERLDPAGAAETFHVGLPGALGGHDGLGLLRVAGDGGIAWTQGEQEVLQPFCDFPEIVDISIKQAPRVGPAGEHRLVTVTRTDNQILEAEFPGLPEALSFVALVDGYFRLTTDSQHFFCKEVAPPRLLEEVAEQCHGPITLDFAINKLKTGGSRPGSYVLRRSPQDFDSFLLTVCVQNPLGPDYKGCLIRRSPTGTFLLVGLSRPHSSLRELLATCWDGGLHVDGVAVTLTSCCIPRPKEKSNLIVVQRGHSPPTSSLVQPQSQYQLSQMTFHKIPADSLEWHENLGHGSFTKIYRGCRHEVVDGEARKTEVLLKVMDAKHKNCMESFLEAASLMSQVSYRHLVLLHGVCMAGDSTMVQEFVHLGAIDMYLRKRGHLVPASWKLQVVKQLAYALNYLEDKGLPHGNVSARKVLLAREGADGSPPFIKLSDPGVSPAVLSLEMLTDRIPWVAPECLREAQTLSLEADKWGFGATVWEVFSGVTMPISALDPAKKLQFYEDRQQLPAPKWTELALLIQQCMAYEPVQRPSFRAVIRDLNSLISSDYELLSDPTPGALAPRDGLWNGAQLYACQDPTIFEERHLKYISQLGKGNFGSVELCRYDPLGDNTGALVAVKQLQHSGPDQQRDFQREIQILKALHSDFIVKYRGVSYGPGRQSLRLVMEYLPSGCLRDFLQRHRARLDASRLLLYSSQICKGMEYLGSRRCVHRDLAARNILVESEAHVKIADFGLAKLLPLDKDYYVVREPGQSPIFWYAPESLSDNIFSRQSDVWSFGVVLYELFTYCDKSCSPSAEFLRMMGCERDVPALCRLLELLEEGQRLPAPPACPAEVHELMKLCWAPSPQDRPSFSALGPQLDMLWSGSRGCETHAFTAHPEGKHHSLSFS
T1 sequence (Q9HBE5 20-538 partner): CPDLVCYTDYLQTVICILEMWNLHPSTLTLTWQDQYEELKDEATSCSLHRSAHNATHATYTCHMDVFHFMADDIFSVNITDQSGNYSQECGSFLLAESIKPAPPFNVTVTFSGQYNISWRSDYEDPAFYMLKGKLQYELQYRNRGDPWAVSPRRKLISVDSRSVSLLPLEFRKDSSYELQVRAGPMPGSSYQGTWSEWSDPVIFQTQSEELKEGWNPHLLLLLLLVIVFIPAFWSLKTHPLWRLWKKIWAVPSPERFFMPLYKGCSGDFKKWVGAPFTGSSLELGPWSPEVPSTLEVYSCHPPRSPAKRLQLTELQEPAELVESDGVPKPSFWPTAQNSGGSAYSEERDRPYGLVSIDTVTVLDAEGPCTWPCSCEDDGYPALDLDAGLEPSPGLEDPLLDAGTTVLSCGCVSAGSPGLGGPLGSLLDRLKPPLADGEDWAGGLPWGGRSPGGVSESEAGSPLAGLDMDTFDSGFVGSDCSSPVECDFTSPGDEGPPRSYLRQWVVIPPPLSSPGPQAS
T1 sequence (P31785 23-369 partner): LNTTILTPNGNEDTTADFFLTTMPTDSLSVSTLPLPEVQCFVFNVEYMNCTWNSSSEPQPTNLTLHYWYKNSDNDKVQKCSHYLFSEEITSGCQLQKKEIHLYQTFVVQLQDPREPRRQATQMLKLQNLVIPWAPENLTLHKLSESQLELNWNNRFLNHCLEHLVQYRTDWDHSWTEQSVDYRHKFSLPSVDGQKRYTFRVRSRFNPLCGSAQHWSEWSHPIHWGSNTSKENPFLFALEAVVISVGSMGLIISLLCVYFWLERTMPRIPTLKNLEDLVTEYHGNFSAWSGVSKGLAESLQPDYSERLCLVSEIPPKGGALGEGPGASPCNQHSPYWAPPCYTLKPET

Compound `CC(C)(O)CNC(=O)Cc1nc2cnc3[nH]ccc3c2n1[C@H]1CC[C@H](CC#N)CC1` [Compound of Formula I, 2-(1-((1r,4r)-4-(Cyanomethyl)cyclohexyl)-1,6-dihydroimidazo[4,5-d]pyrrolo[2,3-b]pyridin-2-yl)-N-(2-hydroxy-2-methylpropyl)acetamide] has an IC50 (JAK1/JAK3) of 579 nM, a concentration at 4 h ([1]; colon, 10 mg/kg, S-1, oral 10 mg/kg, read-out: Colon 4 h post dosing) of 6600 ± 787 ng/g and a concentration at 4 h ([1]; colon, 10 mg/kg, S-2, oral 10 mg/kg, read-out: Colon 4 h post dosing) of 10100 ± 1300 ng/g. The concentration at 4 h ([1]; colon, 25 mg/kg, S-1, oral 25 mg/kg, read-out: Colon 4 h post dosing) was 30800 ± 5550 ng/g, the concentration at 4 h ([1]; colon, 25 mg/kg, S-2, oral 25 mg/kg, read-out: Colon 4 h post dosing) was 18300 ± 4120 ng/g and the concentration at 4 h ([1]; colon, 50 mg/kg, S-1, oral 50 mg/kg, read-out: Colon 4 h post dosing) was 59600 ± 11300 ng/g. For the same compound, the concentration at 4 h ([1]; colon, 50 mg/kg, S-2, oral 50 mg/kg, read-out: Colon 4 h post dosing) was 35600 ± 5560 ng/g, the concentration at 30 min ([1]; serum, 10 mg/kg, S-1, oral 10 mg/kg) was 7.4 ± 1.4 nM and the concentration at 30 min ([1]; serum, 10 mg/kg, S-2, oral 10 mg/kg) was 7 ± 0.7 nM. For the same compound, the concentration at 30 min ([1]; serum, 25 mg/kg, S-1, oral 25 mg/kg) was 21.8 ± 5.5 nM, the concentration at 4 h ([1]; serum, 25 mg/kg, S-1, oral 25 mg/kg, read-out: Serum 4 h post dosing) was 25 ± 20.3 nM and the concentration at 30 min ([1]; serum, 25 mg/kg, S-2, oral 25 mg/kg) was 70.5 ± 60.4 nM. The concentration at 4 h ([1]; serum, 25 mg/kg, S-2, oral 25 mg/kg, read-out: Serum 4 h post dosing) was 45.1 ± 24 nM, the concentration at 30 min ([1]; serum, 50 mg/kg, S-1, oral 50 mg/kg) was 122 ± 87.2 nM and the concentration at 4 h ([1]; serum, 50 mg/kg, S-1, oral 50 mg/kg, read-out: Serum 4 h post dosing) was 19.7 ± 8 nM. For the same compound, the concentration at 30 min ([1]; serum, 50 mg/kg, S-2, oral 50 mg/kg) was 38.8 ± 7.4 nM, the concentration at 4 h ([1]; serum, 50 mg/kg, S-2, oral 50 mg/kg, read-out: Serum 4 h post dosing) was 131 ± 108 nM and the “Serum 4 h post dosing” value ([1]; S-1, oral 10 mg/kg) was “BLOQ”. For the same compound, the “Serum 30 min post dosing” value ([1]; S-1, oral 10 mg/kg, 10 mg/kg) was 7.4 ± 1.4 nM, the “Colon 4 h post dosing” value ([1]; S-1, oral 25 mg/kg, 25 mg/kg) was 30814.5 ± 5552.5 ng/g and the “Serum 30 min post dosing” value ([1]; S-1, oral 25 mg/kg, 25 mg/kg) was 21.8 ± 5.5 nM. The “Serum 30 min post dosing” value ([1]; S-1, oral 50 mg/kg, 50 mg/kg) was 121.7 ± 87.2 nM, the “Serum 4 h post dosing” value ([1]; S-2, oral 10 mg/kg) was “BLOQ” and the “Serum 30 min post dosing” value ([1]; S-2, oral 10 mg/kg, 10 mg/kg) was 7.0 ± 0.7 nM. The “Colon 4 h post dosing” value ([1]; S-2, oral 25 mg/kg, 25 mg/kg) was 18256.5 ± 4118.8 ng/g, the “Serum 30 min post dosing” value ([1]; S-2, oral 25 mg/kg, 25 mg/kg) was 70.5 ± 60.4 nM and the “Serum 30 min post dosing” value ([1]; S-2, oral 50 mg/kg, 50 mg/kg) was 38.8 ± 7.4 nM. It also gave a concentration at 4 h ([2]; colon, 0.25 mg/kg, SS-1, mice, 4 hours post oral dose 0.25 mg/kg, mean±SEM, read-out: Colon concentration) of 446 ± 51.5 ng/g, a concentration at 4 h ([2]; colon, 0.25 mg/kg, SS-2, mice, 4 hours post oral dose 0.25 mg/kg, mean±SEM, read-out: Colon concentration) of 262 ± 30.5 ng/g and a concentration at 4 h ([2]; colon, 2.5 mg/kg, SS-1, mice, 4 hours post oral dose 2.5 mg/kg, mean±SEM, read-out: Colon concentration) of 2840 ± 716 ng/g. The concentration at 4 h ([2]; colon, 2.5 mg/kg, SS-2, mice, 4 hours post oral dose 2.5 mg/kg, mean±SEM, read-out: Colon concentration) was 1320 ± 270 ng/g, the concentration at 4 h ([2]; colon, 5 mg/kg, SS-1, mice, 4 hours post oral dose 5 mg/kg, mean±SEM, read-out: Colon concentration) was 4630 ± 705 ng/g and the concentration at 4 h ([2]; colon, 5 mg/kg, SS-2, mice, 4 hours post oral dose 5 mg/kg, mean±SEM, read-out: Colon concentration) was 4670 ± 953 ng/g. The concentration at 4 h ([2]; colon, 25 mg/kg, SS-1, mice, 4 hours post oral dose 25 mg/kg, mean±SEM, read-out: Colon concentration) was 27500 ± 6130 ng/g, the concentration at 4 h ([2]; colon, 25 mg/kg, SS-2, mice, 4 hours post oral dose 25 mg/kg, mean±SEM, read-out: Colon concentration) was 22900 ± 4150 ng/g and the concentration at 4 h ([2]; serum, 5 mg/kg, SS-2, mice, 4 hours post oral dose 5 mg/kg, mean±SEM, read-out: Serum concentration) was 10.3 ± 6.9 nM. It also gave a concentration at 4 h ([2]; serum, 25 mg/kg, SS-1, mice, 4 hours post oral dose 25 mg/kg, mean±SEM, read-out: Serum concentration) of 4.9 ± 2.1 nM, a concentration at 4 h ([2]; serum, 25 mg/kg, SS-2, mice, 4 hours post oral dose 25 mg/kg, mean±SEM, read-out: Serum concentration) of 6.3 ± 2.9 nM and a concentration at 4 h ([2]; serum, SS-1 and SS-2, all oral doses, 4 hours post dose, read-out: systemic (serum) exposure) of at most 10.3 nM. For the same compound, the Serum concentration ([2]; SS-1, mice, 4 hours post oral dose 0.25 mg/kg, mean±SEM) was “BLOQ”, the Serum concentration ([2]; SS-1, mice, 4 hours post oral dose 2.5 mg/kg, mean±SEM) was “BLOQ” and the Serum concentration ([2]; SS-1, mice, 4 hours post oral dose 5 mg/kg, mean±SEM) was “BLOQ”. For the same compound, the Colon concentration ([2]; SS-1, mice, 4 hours post oral dose 25 mg/kg, mean±SEM, 25 mg/kg) was 27488.1 ± 6128.6 ng/g, the Serum concentration ([2]; SS-2, mice, 4 hours post oral dose 0.25 mg/kg, mean±SEM) was “BLOQ” and the Serum concentration ([2]; SS-2, mice, 4 hours post oral dose 2.5 mg/kg, mean±SEM) was “BLOQ”. For the same compound, the Colon concentration ([2]; SS-2, mice, 4 hours post oral dose 25 mg/kg, mean±SEM, 25 mg/kg) was 22929.6 ± 4146.6 ng/g.
